The structures appear in SMILES notation.

The target of the test is PI3Kδ (Homo sapiens (Human), UniProt O00329). Nature of the test: PI3Kδ Alphascreen assay. It is filed as biochemical. The method, then: Full length p110 subunits of PI3k α, β and δ, N-terminally labeled with polyHis tag, were coexpressed with p85 with Baculo virus expression vectors in sf9 insect cells. P110/p85 heterodimers were purified by sequential Ni-NTA, Q-HP, Superdex-100 chromatography. Purified α, β and δ isozymes were stored at −20° C. in 20 mM Tris, pH 8, 0.2M NaCl, 50% glycerol, 5 mM DTT, 2 mM Na cholate. […] The y isozyme was purified by sequential Ni-NTA, Superdex-200, Q-HP chromatography. The γ isozyme was stored frozen at −80° C. in NaH2PO4, pH 8, 0.2M NaCl, 1% ethylene glycol, 2 mM β-mercaptoethanol.
Sequence of PI3Kδ (O00329 whole entry): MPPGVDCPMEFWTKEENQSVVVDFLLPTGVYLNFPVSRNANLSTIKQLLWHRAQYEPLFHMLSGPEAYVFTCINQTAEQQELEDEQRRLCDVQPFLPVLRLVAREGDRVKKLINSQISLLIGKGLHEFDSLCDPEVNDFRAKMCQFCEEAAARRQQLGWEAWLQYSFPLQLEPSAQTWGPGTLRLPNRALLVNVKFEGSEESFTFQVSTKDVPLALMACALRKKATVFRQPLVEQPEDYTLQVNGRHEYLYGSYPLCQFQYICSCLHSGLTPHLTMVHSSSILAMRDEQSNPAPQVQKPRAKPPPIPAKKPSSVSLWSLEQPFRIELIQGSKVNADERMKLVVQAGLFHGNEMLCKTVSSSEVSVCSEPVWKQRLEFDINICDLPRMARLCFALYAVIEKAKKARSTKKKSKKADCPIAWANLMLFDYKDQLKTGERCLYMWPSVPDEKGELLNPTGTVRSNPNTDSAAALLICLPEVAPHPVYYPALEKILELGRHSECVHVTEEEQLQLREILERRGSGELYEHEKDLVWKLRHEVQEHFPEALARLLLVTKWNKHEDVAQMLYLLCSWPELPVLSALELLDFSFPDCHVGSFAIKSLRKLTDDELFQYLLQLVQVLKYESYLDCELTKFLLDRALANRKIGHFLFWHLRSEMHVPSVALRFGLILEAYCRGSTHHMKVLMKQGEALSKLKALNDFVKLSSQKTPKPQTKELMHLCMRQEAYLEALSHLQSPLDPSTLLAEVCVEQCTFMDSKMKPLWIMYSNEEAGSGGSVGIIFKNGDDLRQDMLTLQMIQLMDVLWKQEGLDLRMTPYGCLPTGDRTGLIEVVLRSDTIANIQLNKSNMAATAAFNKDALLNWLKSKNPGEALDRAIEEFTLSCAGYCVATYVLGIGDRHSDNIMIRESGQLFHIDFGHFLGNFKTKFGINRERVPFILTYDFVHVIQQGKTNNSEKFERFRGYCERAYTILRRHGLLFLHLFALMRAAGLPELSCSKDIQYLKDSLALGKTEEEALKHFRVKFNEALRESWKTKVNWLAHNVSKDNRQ
Sequence of PI3Kδ (P27986 whole entry partner): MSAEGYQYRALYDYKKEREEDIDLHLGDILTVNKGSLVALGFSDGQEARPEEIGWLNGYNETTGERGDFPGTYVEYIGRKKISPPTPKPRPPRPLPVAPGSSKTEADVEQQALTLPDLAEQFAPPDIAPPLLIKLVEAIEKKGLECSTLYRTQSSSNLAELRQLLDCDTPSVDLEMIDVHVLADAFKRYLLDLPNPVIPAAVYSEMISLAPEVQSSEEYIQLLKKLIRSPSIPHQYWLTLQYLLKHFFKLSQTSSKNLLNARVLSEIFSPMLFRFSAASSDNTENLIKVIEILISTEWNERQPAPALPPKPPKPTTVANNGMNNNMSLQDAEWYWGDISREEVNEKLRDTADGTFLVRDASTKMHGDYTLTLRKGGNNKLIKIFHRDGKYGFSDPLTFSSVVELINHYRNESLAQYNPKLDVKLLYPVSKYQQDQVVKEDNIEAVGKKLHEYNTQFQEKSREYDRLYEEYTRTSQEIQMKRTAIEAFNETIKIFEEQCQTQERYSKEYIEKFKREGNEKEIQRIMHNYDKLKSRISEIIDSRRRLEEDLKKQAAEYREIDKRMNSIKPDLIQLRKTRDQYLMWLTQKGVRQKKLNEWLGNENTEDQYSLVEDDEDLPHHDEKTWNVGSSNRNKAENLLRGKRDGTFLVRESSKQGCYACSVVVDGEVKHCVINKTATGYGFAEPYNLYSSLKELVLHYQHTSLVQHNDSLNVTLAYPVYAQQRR
A PI3K Alphascreen® assay (PerkinElmer, Waltham, Mass.) was used to measure the activity of a panel of four phosphoinositide 3-kinases: PI3Kα, PI3Kβ, PI3Kγ, and PI3Kδ. Enzyme reaction buffer was prepared using sterile water (Baxter, Deerfield, Ill.) and 50 mM Tris HCl pH 7, 14 mM MgCl2, 2 mM sodium cholate, and 100 mM NaCl. 2 mM DTT was added fresh the day of the experiment. The Alphascreen buffer was made using sterile water and 10 mM Tris HCl pH 7.5, 150 mM NaCl, 0.10% Tween 20, and 30 mM EDTA. 1 mM DTT was added fresh the day of the experiment. Compound source plates used for this assay were 384-well Greiner clear polypropylene plates containing test compounds at 5 mM and diluted 1:2 over 22 concentrations. Columns 23 and 24 contained only DMSO as these wells comprised the positive and negative controls, respectively. Source plates were replicated by transferring 0.5 uL per well into 384-well Optiplates (PerkinElmer, Waltham, Mass.).
Each PI3K isoform was diluted in enzyme reaction buffer to 2× working stocks. […] PI(4,5)P2 (Echelon Biosciences, Salt Lake City, Utah) was diluted to 10 μM and ATP was diluted to 20 μM. This 2× stock was used in the assays for PI3Kα and PI3Kβ. For assay of PI3Kγ and PI3Kδ, PI(4,5)P2 was diluted to 10 μM and ATP was diluted to 8 μM to prepare a similar 2× working stock. Alphascreen reaction solutions were made using beads from the anti-GST Alphascreen kit (PerkinElmer, Waltham, Mass.). Two 4× working stocks of the Alphascreen reagents were made in Alphascreen reaction buffer. In one stock, biotinylated-IP4 (Echelon Biosciences, Salt Lake City, Utah) was diluted to 40 nM and streptavadin-donor beads were diluted to 80 μg/mL. In the second stock, PIP3-binding protein (Echelon Biosciences, Salt Lake City, Utah) was diluted to 40 nM and anti-GST-acceptor beads were diluted to 80 μg/mL.
10 μL/well of the appropriate substrate 2× stock (containing 20 μM ATP for the PI3Kα and β assays and containing 8 μM ATP for the PI3Kγ and δ assays) was then added to Columns 1-24 of all plates. Plates were then incubated at room temperature for 20 minutes. In the dark, 10 μL/well of the donor bead solution was added to columns 1-24 of the plates to quench the enzyme reaction. The plates were incubated at room temperature for 30 minutes. Still in the dark, 10 μL/well of the acceptor bead solution was added to columns 1-24 of the plates. The plates were then incubated in the dark for 1.5 hours. The plates were read on an Envision multimode Plate Reader (PerkinElmer, Waltham, Mass.) using a 680 nm excitation filter and a 520-620 nm emission filter.
On the technique in general: Bead proximity is the source of the signal in Alpha formats.
For orientation: Ki means a measure of affinity in units of concentration, obtained from inhibition or displacement. Low readings indicate a stronger hold on the target, high ones a looser hold on the target. `Cc1cccc2nc(C(C)Nc3ncnc4[nH]cnc34)c(-c3cccc(F)c3)c(=O)n12` (racemic) [3-(3-fluorophenyl)-6-methyl-2-(1-(9H-purin-6-ylamino)ethyl)-4H-pyrido[1,2-a]pyrimidin-4-one] came in with a Ki of 0.0277 µM.
With `CC(Nc1ncnc(N)c1C#N)c1nc2ccccn2c(=O)c1-c1cc(F)cc(F)c1` (racemic) [4-Amino-6-((1-(3-(3,5-difluorophenyl)-4-oxo-4H-pyrido[1,2-a]pyrimidin-2-yl)ethyl)amino)-5-pyrimidinecarbonitrile] the figure was 0.089 µM; with `CC(Nc1ncnc(N)c1C#N)c1nc2ccccn2c(=O)c1-c1ccccc1S(C)(=O)=O` (racemic) [4-amino-6-((1-(3-(2-(methylsulfonyl)phenyl)-4-oxo-4H-pyrido[1,2-a]pyrimidin-2-yl)ethyl)amino)-5-pyrimidinecarbonitrile], 0.0528 µM; with `CC(Nc1ncnc(N)c1C#N)c1nc2ccccn2c(=O)c1-c1cccc(F)c1` (racemic) [4-amino-6-((1-(3-(3-fluorophenyl)-4-oxo-4H-pyrido[1,2-a]pyrimidin-2-yl)ethyl)amino)-5-pyrimidinecarbonitrile], 0.0571 µM.
For `Cc1ccnc(-c2c(C(C)Nc3ncnc(N)c3C#N)nc3ccccn3c2=O)c1` (racemic) [4-amino-6-((1-(3-(4-methyl-2-pyridinyl)-4-oxo-4H-pyrido[1,2-a]pyrimidin-2-yl)ethyl)amino)-5-pyrimidinecarbonitrile] the value was 0.471 µM; for `CC(Nc1ncnc(N)c1C#N)c1nc2ccccn2c(=O)c1-c1ccccn1` (racemic) [4-amino-6-((1-(4-oxo-3-(2-pyridinyl)-4H-pyrido[1,2-a]pyrimidin-2-yl)ethyl)amino)-5-pyrimidinecarbonitrile], 0.104 µM; for `Cc1cccc2nc(C(C)Nc3ncnc(N)c3C#N)c(-c3ccccn3)c(=O)n12` (racemic) [4-amino-6-((1-(6-methyl-4-oxo-3-(2-pyridinyl)-4H-pyrido-[1,2-a]pyrimidin-2-yl)ethyl)amino)-5-pyrimidinecarbonitrile], 0.0108 µM.
For `Cc1cccc2nc(C(C)Nc3ncnc(N)c3C#N)c(-c3ccccc3)c(=O)n12` (racemic) [4-amino-6-((1-(6-methyl-4-oxo-3-phenyl-4H-pyrido[1,2-a]pyrimidin-2-yl)ethyl)amino)-5-pyrimidinecarbonitrile] the value was 0.0126 µM.
The compound `Cc1cccc2nc(C(C)Nc3ncnc(N)c3C#N)c(-c3ccccc3)c(=O)n12` (single isomer, unassigned) had a Ki of 1.18 µM.
With `Cc1cccc2nc(Cn3nc(I)c4c(N)ncnc43)c(-c3cccc(F)c3)c(=O)n12` [2-((4-amino-3-iodo-1H-pyrazolo[3,4-d]pyrimidin-1-yl)methyl)-3-(3-fluorophenyl)-6-methyl-4H-pyrido[1,2-a]pyrimidin-4-one] the figure was 0.0849 µM; with `Cc1ccccc1-c1c(Cn2cnc3c(N)ncnc32)nc2cccc(C)n2c1=O` [2-((6-amino-9H-purin-9-yl)methyl)-6-methyl-3-(2-methylphenyl)-4H-pyrido[1,2-a]pyrimidin-4-one], 6.28 µM.
For `Cc1cccc2nc(CNc3ncnc4[nH]cnc34)c(-c3cccc(F)c3)c(=O)n12` [3-(3-Fluorophenyl)-6-methyl-2-((9H-purin-6-ylamino)methyl)-4H-pyrido[1,2-a]pyrimidin-4-one] the value was 0.711 µM.
With `Cc1cccc2nc([C@@H](C)Nc3ncnc4[nH]cnc34)c(-c3cccc(F)c3)c(=O)n12` [3-(3-fluorophenyl)-6-methyl-2-((1R)-1-(9H-purin-6-ylamino)ethyl)-4H-pyrido[1,2-a]pyrimidin-4-one] the figure was 0.802 µM; with `Cc1cccc2nc([C@H](C)Nc3ncnc4[nH]cnc34)c(-c3cccc(F)c3)c(=O)n12` [3-(3-fluorophenyl)-6-methyl-2-((1S)-1-(9H-purin-6-ylamino)ethyl)-4H-pyrido[1,2-a]pyrimidin-4-one], 0.0231 µM.

(Values after patent publication US8754089B2, “Heterocyclic compounds and their uses” (Amgen Inc., priority 2009, dated 2014).)
